Results from patent publication US20090176696A1, “Methods And Compositions For Modulating An Immune Response” (priority 2006, published 2009).
Entries after “also recorded” stand apart in the source; their conditions may differ.

Tests used:
[1] = system: Bone marrow-derived dendritic cells (BMDCs); experiment: Cytokine production (ELISA) by BMDCs pre-treated with TCT, then stimulated with TLR agonists; assay type: cell-based, BALB/c mice
Procedure: Bone marrow-derived dendritic cells (BMDCs) from BALB/c mice were pre-treated with TCT (10 μg/ml) for 1, 6 and 12 hours before being stimulated with a range of concentrations of the TLR2 agonist, Pam-3Csk (10, 100, 1000 ng/ml), the TLR4 agonist, B. pertussis LPS (100, 1000, 10,000 pg/ml) and the TLR9 agonist, CpG (10, 100, 1000 ng/ml) for a further 12 hours. The concentration range chosen for each TLR agonist was based on preliminary experiments. Cytokine and chemokine concentrations were evaluated by ELISA.

[2] = system: KLH-specific T cell and antibody responses; experiment: TCT injection 6 hours before immunisation with KLH or KLH with alum; ex vivo spleen and lymph node responses and antibody titres; assay type: in vivo, BALB/c mice
Procedure: Cohorts of BALB/c mice were injected sub-cutaneously (s.c.) into the flank with PBS or TCT alone, and then immunised sub-cutaneously with KLH or KLH with alum 6 hours later. The adaptive immune response was assessed 14 days later by stimulating spleen and local inguinal lymph node cells with antigen ex vivo. Spleen (FIG. 6A) and lymph node (FIG. 6B) cell suspensions were cultured in the presence of various concentrations of KLH (2, 10, 50 μg/ml) and PMA/anti-CD3 or medium were used as positive and negative controls respectively. Supernatants were collected 72 hours later, fresh medium was added to the wells and cells were incubated overnight. At day 4, 2 μCi of ^3H thymidine was added to each well. Plates were incubated for a further 6 hours, and ^3H incorporation was determined.
In addition, supernatants were tested for IFN-gamma, IL-10, IL-4 and IL-5 by ELISA (spleen—FIG. 7 and lymph nodes—FIG. 8). KLH-specific antibody titres were also determined by ELISA (FIG. 9).

[3] = system: KLH-specific T cell and antibody responses; experiment: TCT injection 6 hours before immunisation with KLH and E. coli heat labile enterotoxin (LT); ex vivo lymph node responses and antibody titres; assay type: in vivo, BALB/c mice
Procedure: Groups of 5 BALB/c mice were injected subcutaneously into the flank with PBS or TCT (10 μg/mouse) and then immunised with KLH (20 μg/mouse) or KLH with E. coli heat labile enterotoxin (LT) (100 ng/mouse) 6 hours later. The T cell response was assessed 14 days later from local inguinal lymph node cells stimulated with antigen ex vivo.
Lymph node (FIG. 10) cell suspensions were cultured in the presence of various concentrations of KLH (2, 10, 50 μg/ml) and PMA/CD3 or medium were used as positive and negative controls respectively. Supernatants were collected 72 hours later. Concentrations of IFN-gamma, IL-10, IL-4 and IL-5 in supernatants were evaluated by ELISA (FIG. 10). KLH-specific antibody titres were also determined by ELISA (FIG. 11). Results are the mean responses (±SD) for 5 mice assessed individually in triplicate.

[4] = system: KLH-specific T cell responses; experiment: Footpad immunisation with KLH (PBS, alum or LPS) with or without TCT; popliteal lymph node cytokines; assay type: in vivo, BALB/c mice
Procedure: BALB/c mice were injected subcutaneously into the footpad with either PBS alone, KLH (20 μg), KLH adsorbed to alum, KLH+LPS (10 μg) or KLH+TCT (10 or 25 μg), KLH+LPS+TCT or KLH+TCT adsorbed to alum. 5 days later mice were sacrificed and the popiliteal LNs were removed. Single LN cell suspensions were cultured in the presence of increasing concentrations of KLH (2-50 μg/ml) or PMA/CD3 or medium as positive and negative controls respectively. Supernatants were taken 3 days later and tested for IFN-γ, IL-10, IL-4 and IL-5 by ELISA. Results are mean (+/−SD) values for 5 mice per group.

[5] = system: Experimental autoimmune encephalomyelitis (EAE); experiment: Experimental autoimmune encephalomyelitis (EAE) induced with MOG peptide 35-55 in CFA; assay type: in vivo, C57BL/6 mice
Procedure: EAE was induced in C57BL/6 mice by subcutaneous immunisation with 150 μg MOG peptide 35-55 emulsified in CFA supplemented with 5 mg/ml of killed Mycobacterium tuberculosis. Mice were injected intraperitoneally (i.p) with 500 ng of pertussis toxin (PT) on days 0 and 2. Mice were injected with either PBS or TCT (10 μg/mouse) s.c in the flank on day 1 post EAE induction and every 3-4 days thereafter (FIG. 15). Mice were observed daily for signs of clinical disease. Disease severity was recorded as follows: grade 0, normal; grade 1, limp tail; grade 2, wobbly gait; grade 3, hind limb weakness; grade 4, hind limb paralysis and grade 5, tetraparalysis/death.

[6] = system: Bone marrow-derived dendritic cells (BMDCs); experiment: Cytokine production (ELISA) by BMDCs pre-treated with TCT, then stimulated with TLR agonists; assay type: cell-based, BALB/c mice; remark: listed apart in the source
[7] = TCT 10 μg/ml for 1, 6, 12 hours, Pam-3Csk 10, 100, 1000 ng/ml for 12 hours
[8] = TCT 10 μg/ml pre-treatment (particularly 1 hour), Pam-3Csk, B. pertussis LPS, CpG for 12 hours
[9] = TCT 6 hours before KLH and alum
[10] = TCT 6 hours before KLH only or KLH and alum
[11] = TCT 6 hours before alum adsorbed KLH, day 14
[12] = TCT 6 hours before immunisation KLH
[13] = TCT 10 μg/mouse 6 hours before KLH and LT
[14] = TCT 10 μg/mouse 6 hours before KLH with LT
[15] = KLH and LPS, co-administration of TCT
[16] = KLH in alum, TCT 10 or 25 μg/mouse
[17] = KLH in alum, treatment with TCT
[18] = co-administration of TCT with KLH in PBS

CC(=O)NC1C(OC2C3COC(O3)C(NC(C)=O)C2OC(C)C(=O)NC(C)C(=O)NC(CCC(=O)NC(CCCC(N)C(=O)NC(C)C(=O)O)C(=O)O)C(=O)O)OC(CO)C(O)C1O (stereo not shown) [TCT, N-acetylglucosaminyl-1,6-anhydro-N-acetylmuramylalanyl-γ-glutamyldiaminopimelylalanine]
IL-10 production by B. pertussis LPS ([1]; LPS 10,000 pg/ml, TCT pre-treatment 1 and 6 hours): significant enhancement | IL-10 production in response to the TLR-9 agonist CpG ([1]; TCT 10 μg/ml for 1, 6, 12 hours, CpG 10, 100, 1000 ng/ml for 12 hours): enhances | IL-6 production in response to the TLR-4 agonist B. pertussis LPS ([1]; TCT 10 μg/ml for 1, 6, 12 hours, LPS 100, 1000, 10000 pg/ml for 12 hours): enhances | IL-6 production in response to the TLR-2 agonist Pam-3Csk [1, 7]: enhances | IL-10 production in response to the TLR-2 agonist Pam-3Csk [1, 7]: enhances | IL-6 production by all the TLR agonists examined [1, 8]: significantly enhanced | IL-10 production by all the TLR agonists examined [1, 8]: significantly enhanced | IL-12p40 production induced by LPS ([1]; TCT 10 μg/ml pre-treatment, B. pertussis LPS): significantly reduced | IL-12p40 production induced by Pam-3Csk ([1]; TCT 10 μg/ml pre-treatment, Pam-3Csk): significantly reduced | production of cytokines and chemokines examined ([1]; TCT alone (10 μg/ml), no TLR agonist): did not induce | IFN-gamma production, spleen cells [2, 9]: reduced | IL-4 production, spleen cells [2, 9]: reduced | IL-5 production, spleen cells [2, 9]: reduced | KLH-specific IL-10 production by lymph node cells [2, 9]: severely impaired; also recorded: attenuated | KLH-specific IL-10 production by spleen cells ([2]; TCT 6 hours before KLH and alum, p<0.001): significant reduction | antigen-specific IgG1 titres [2, 10]: no significant effect | antigen-specific IgG2a titres [2, 10]: no significant effect | total KLH-specific IgG production [2, 10]: no significant effect | proliferation response to KLH, lymph node cells [2, 11]: reduction | proliferation response to KLH, spleen cells [2, 11]: reduction | Antigen-specific IL-5 production, lymph node cells [2, 12]: reduced | antigen-specific IL-4 production, lymph node cells [2, 12]: reduced | IFN-gamma production, spleen cells ([2]; TCT before immunisation with KLH and PBS): reduced | proliferation response, spleen cells ([2]; mice immunised with KLH and PBS): reduced | antigen-specific IFN-gamma, lymph node cells ([2]; mice immunised with KLH and alum): abrogated | antigen-specific IFN-gamma production by lymph node cells [3, 13]: significantly impaired | antigen-specific IL-4 production by lymph node cells [3, 13]: significantly impaired | KLH-specific IL-5 production, lymph node cells [3, 14]: reduction | KLH-specific IL-10 production, lymph node cells [3, 14]: reduction | antigen-specific IgG1 titres ([3]; TCT 6 hours before LT and KLH): no effect | antigen-specific IgG2a titres ([3]; TCT 6 hours before LT and KLH): no effect | total KLH-specific IgG production ([3]; TCT 6 hours before LT and KLH): no effect | IFN-γ production promoted with LPS [4, 15]: not affected | IL-10 production promoted with LPS [4, 15]: not affected | IL-4 response, draining lymph node cells [4, 16]: significantly reduced | IL-5 response, draining lymph node cells [4, 16]: significantly reduced | IFN-γ production, draining lymph node cells [4, 17]: not significantly affected | IL-10 production, draining lymph node cells [4, 17]: not significantly affected | IFN-γ response [4, 18]: enhanced | IL-10 response [4, 18]: enhanced | first clinical signs of disease post induction ([5]; TCT 10 μg/mouse s.c. day 1 and every 3-4 days, untreated mice 12 days): 18 days | severity of disease ([5]; TCT 10 μg/mouse s.c., versus untreated control mice): lower than that observed in the untreated control mice | IL-10 production by dendritic cells in synergy with the TLR4 agonist MPL [6]: enhances
